The record followed here is US9796742B2, “Kinase inhibitors” (Respivert Limited, priority 2012, dated 2017).

The test system of experiment [1] is TNBS-induced colitis in mice. Put plainly: TNBS-induced colitis in mice. In kind it is in vivo. As to the method: Non-fasted, 10-12 week old, male BDF1 mice are dosed by oral gavage twice daily with either vehicle (5 mL/kg), reference item (Budesonide 2.5 mg/kg) or test compound (1 or 5 mg/kg) one day before (Day −1) stimulation of the inflammatory response by treatment with 2,4,6-trinitrobenzenesuiphonic acid (TNBS) (15 mg/mL in 50% ethanol/50% saline). On Day 0 of the study TNBS (200 μL) is administered intra-colonically via a plastic catheter followed by BID dosing of the vehicle, reference or test compound for 2 or 4 days. During the study animals are weighed every day and stool observations are made and recorded as a score, based on stool consistency. At the time of sacrifice on Day 2 (or Day 4) the large intestine is removed and the length and weight recorded. Sections of the colon are taken for either MPO analysis to determine neutrophil infiltration or for histopathology involving scoring to determine disease severity.

The subject of experiment [2] is PBMCs. Kind of experiment: IL-2 and IFN gamma release in CD3/CD28 stimulated PBMC cells. In kind it is cell-based. The conditions noted are these: Homo sapiens. The protocol: PBMCs from healthy subjects are separated from whole blood using a density gradient (Lymphoprep, Axis-Shield Healthcare). Cells are added to a 96 well plate pre-coated with a mixture of CD3/[…] monoclonal antibodies (0.3 μg/mL eBioscience and 3 μg/mL BD Pharmingen respectively). Compound at the desired concentration is then added to the wells and the plate left for 3 days under normal tissue culture conditions. Supernatants are harvested and IL-2 and IFN gamma release determined by Sandwich ELISA (Duo-set, R&D System). The IC50 is determined from the dose response curve.

In experiment [3] the test system is PBMCs. Put plainly: LPS-induced TNFα/IL-8 release in PBMC cells. In kind it is cell-based. To be noted: Homo sapiens, LPS-stimulated PBMCs. In short, it runs like this: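 Human PBMCs from healthy donors, isolated by density gradient, were pretreated with compound for 2 h and then stimulated with 1 ng/mL LPS (E. coli 0111:B4) for 24 h at 37° C, 5% CO2. Supernatant IL-8 and TNFα were measured by sandwich ELISA, and IC50 was taken from the dose-response curve.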

For experiment [4], the target named is p38 MAPKα (Homo sapiens (Human), UniProt Q16539). Put plainly: p38 MAPKα enzyme inhibition (FRET, Z-LYTE; Method 2). In kind it is biochemical. In short, it runs like this:
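p38 MAPKα (2.5 μL of 200 ng/mL stock) preincubated 2 h at RT with compound, then kinase reaction 1 h at RT with readout via MAPKAP-K2 activation using a Z-LYTE FRET peptide. Protease development 1 h; coumarin/fluorescein emission ratio gives phosphorylation. % inhibition versus uninhibited control; IC50 from concentration-response curve.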

Experiment [5] deals with Syk (Homo sapiens (Human), UniProt P43405). Kind of experiment: Syk enzyme inhibition (FRET, Z-LYTE). In kind it is biochemical. In short, it runs like this:
(§1)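 Z-LYTE FRET peptide assay with enzyme preincubated with compound for 2 h at RT, then 1 h kinase reaction and 1 h protease development. ATP solutions were 800 μM for c-Src and 60 μM for Syk. Inhibition was taken from the coumarin/fluorescein emission ratio, and IC50 from concentration-response curves.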

The target in experiment [6] is c-Src (Homo sapiens (Human), UniProt P12931). Kind of experiment: c-Src enzyme inhibition (FRET, Z-LYTE). In kind it is biochemical. In short, it runs like this:
as §1

The target in experiment [7] is GSK3α (Homo sapiens (Human), UniProt P49840). Kind of experiment: GSK 3α enzyme inhibition (FRET, Z-LYTE; Method 2). In kind it is biochemical. The essentials: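 GSK3-α protein preincubated with compound for 105 min, then Z-LYTE FRET peptide and ATP added for 1 h before protease development for 1 h. Phosphorylation taken from coumarin/fluorescein emission ratio; percent inhibition against uninhibited control and IC50 calculated from concentration-response curves.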
Sequence of GSK3α (P49840 whole entry): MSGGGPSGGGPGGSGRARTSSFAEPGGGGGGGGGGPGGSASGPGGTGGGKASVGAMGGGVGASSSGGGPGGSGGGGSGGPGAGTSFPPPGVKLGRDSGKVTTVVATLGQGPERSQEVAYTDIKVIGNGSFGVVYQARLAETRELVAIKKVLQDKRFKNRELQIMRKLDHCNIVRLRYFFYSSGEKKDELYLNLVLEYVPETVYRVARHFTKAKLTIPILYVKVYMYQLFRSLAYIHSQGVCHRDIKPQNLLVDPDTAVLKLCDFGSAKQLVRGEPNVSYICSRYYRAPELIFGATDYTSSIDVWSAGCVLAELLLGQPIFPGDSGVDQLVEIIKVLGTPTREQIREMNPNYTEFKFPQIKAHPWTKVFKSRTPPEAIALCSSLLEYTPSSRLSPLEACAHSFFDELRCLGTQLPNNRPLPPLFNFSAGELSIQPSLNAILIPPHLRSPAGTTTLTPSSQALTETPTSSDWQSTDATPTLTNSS

The subject of experiment [8] is HT29 cells. Put plainly: IL-1β-induced IL-8 release in HT29 cells. In kind it is cell-based. The conditions noted are these: Homo sapiens, HT-29, IL-1β-stimulated HT29 cells, read-out: IC50 Values for Inhibition of Cytokine Release, HT29 cells IL-8. As to the method:
HT29 cells, a human colon adenocarcinorna cell line, are plated in a 96 well plate (24 hrs) and pre-treated with compounds at the desired concentration for 2 hours before addition of 5 ng/mL of IL-1β (Abcam) for 24 hours. Supernatants are harvested for IL-8 quantification by Sandwich ELISA (Duo-set, R&D System). The IC50 is determined from the dose response curve.

Experiment [9] relates to d-U937 cells. Put plainly: LPS-induced TNFα/IL-8 release in d-U937 cells. In kind it is cell-based. The conditions noted are these: Homo sapiens, dU937, LPS-stimulated d-U937 cells. As to the method: U937 cells, a human monocytic cell line, are differentiated to macrophage-type cells by incubation with phorbol myristate acetate (PMA; 100 ng/mL) for 48 to 72 hr. Cells are pre-incubated with final concentrations of test compound for 2 hr and are then stimulated with 0.1 μg/mL of LPS (from E. Coli: O111:B4, Sigma) for 4 hr. The supernatant is collected for determination of TNFα and IL-8 concentrations by sandwich ELISA (Duo-set, R&D systems). The inhibition of TNFα production is calculated as a percentage of that achieved by 10 μg/mL of BIRB796 at each concentration of test compound by comparison against vehicle control. The relative 50% effective concentration (REC50) is determined from the resultant concentration-response curve. The inhibition of IL-8 production is calculated at each concentration of test compound by comparison with vehicle control. The 50% inhibitory concentration (IC50) is determined from the resultant concentration-response curve.

[10] abbreviates: IFNγ, read-out: IC50 Values for Inhibition of Cytokine Release, PBMCs IFNγ.
[11] abbreviates: IL-2, read-out: IC50 Values for Inhibition of Cytokine Release, PBMCs IL-2.
The mark [12] stands for this setting: IL-8, read-out: IC50 Values for Inhibition of Cytokine Release, PBMCs IL-8.
The mark [13] stands for this setting: TNFα (REC50 relative to BIRB796 per method), read-out: IC50 Values for Inhibition of Cytokine Release, dU937 cells TNFα.
The mark [14] stands for this setting: IL-8, read-out: IC50 Values for Inhibition of Cytokine Release, dU937 cells IL-8.

Where two headings read alike, the source gives them in different places. Some results are limits rather than exact numbers.

Sequence of p38 MAPKα (Q16539 whole entry): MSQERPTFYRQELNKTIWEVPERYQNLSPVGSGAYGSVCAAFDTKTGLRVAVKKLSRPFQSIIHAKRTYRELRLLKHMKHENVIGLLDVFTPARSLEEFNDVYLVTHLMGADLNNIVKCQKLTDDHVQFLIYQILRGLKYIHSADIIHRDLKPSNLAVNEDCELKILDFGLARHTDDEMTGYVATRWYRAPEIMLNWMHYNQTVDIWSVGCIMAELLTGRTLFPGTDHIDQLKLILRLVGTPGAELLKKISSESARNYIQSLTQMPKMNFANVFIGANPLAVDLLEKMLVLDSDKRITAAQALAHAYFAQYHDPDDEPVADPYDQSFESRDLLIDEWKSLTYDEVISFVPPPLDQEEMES
Sequence of c-Src (P12931 whole entry, looked up): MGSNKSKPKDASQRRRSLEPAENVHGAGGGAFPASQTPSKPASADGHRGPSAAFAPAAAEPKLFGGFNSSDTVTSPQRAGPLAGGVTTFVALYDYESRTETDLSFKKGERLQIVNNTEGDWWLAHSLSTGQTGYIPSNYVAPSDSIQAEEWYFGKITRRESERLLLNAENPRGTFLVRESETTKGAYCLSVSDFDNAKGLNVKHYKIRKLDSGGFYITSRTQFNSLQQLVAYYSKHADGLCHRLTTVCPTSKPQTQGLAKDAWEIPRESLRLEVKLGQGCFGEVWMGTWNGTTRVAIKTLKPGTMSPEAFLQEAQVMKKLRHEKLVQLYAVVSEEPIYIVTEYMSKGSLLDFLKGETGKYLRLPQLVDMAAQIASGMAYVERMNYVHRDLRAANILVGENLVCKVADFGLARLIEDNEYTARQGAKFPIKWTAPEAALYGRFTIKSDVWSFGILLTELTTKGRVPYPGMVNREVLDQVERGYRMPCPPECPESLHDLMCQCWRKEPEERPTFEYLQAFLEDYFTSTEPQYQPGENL

For the molecule `Cc1cc(Nc2nccc(Oc3ccc(NC(=O)Nc4cc(C(C)(C)C)nn4-c4cccc(CP(C)(C)=O)c4)c4ccccc34)n2)cc2cn[nH]c12` [Example 32, 1-(3-(tert-Butyl)-1-(3-((dimethylphosphoryl)methyl)phenyl)-1H-pyrazol-5-yl)-3-(4-((2-((7-methyl-1H-indazol-5-yl)amino)pyrimidin-4-yl)oxy)naphthalen-1-yl)urea], the “TNBS Ulcer grade” value in experiment [1] (5 mg/kg oral, conducted over 2 days, vehicle 3.6 ± 0.3 (exp. 1), 4.4 ± 0.2 (exp. 2)) amounted to 3.3 ± 0.4. Moreover, the “TNBS LP inflammation” value in [1] (5 mg/kg oral, conducted over 2 days, vehicle 3.9 ± 0.3 (exp. 1), 4.5 ± 0.2 (exp. 2)) worked out at 2.7 ± 0.4. The “activity in in vivo model of colonic inflammation (histopathology analysis)” value in experiment [1] (conducted over 2 days) is listed as “significant activity”. The “inflammatory cell infiltrate in the reticular and laminar propria zone” value in experiment [1] (dosed orally at 5 mg/kg) is “marked reduction”. The “ulcer grade and epithelial repair compared to the vehicle control” value in experiment [1] (dosed orally at 5 mg/kg) is given as “marked improvements”. Also, the IC50 in experiment [2] (setting [10]) turned out to be 2.3 nM; in experiment [2] (setting [11]) it was 4.2 nM; in experiment [3] (setting [12]), 1.3 nM; in experiment [4] it was 60 nM; in experiment [5], 5 nM; in experiment [6], 5 nM. Besides, the IC50 was 1320 nM in experiment [7] and 1.9 nM in experiment [8].
As for `COc1cc(Nc2nccc(Oc3ccc(NC(=O)Nc4cc(C(C)C)nn4-c4cccc(CP(C)(C)=O)c4)c4ccccc34)n2)cc(OCCN2CCOCC2)c1` [Example 39, 1-(1-(3-((Dimethylphosphoryl)methyl)phenyl)-3-isopropyl-1H-pyrazol-5-yl)-3-(4-((2-((3-methoxy-5-(2-morpholinoethoxy)phenyl)amino)pyrimidin-4-yl)oxy)naphthalen-1-yl)urea], the IC50 in [3] (setting [12]) was 1.2 nM; in [4], 13 nM; in [9] (setting [13]), 0.5 nM; in experiment [5] it was 1 nM; in experiment [6], 3 nM; in [7] it was 2230 nM. The IC50 in [8] came out at 4.6 nM.
On to `CN(c1ccccc1)c1nccc(Oc2ccc(NC(=O)Nc3cc(C(C)(C)C)nn3-c3ccc(P(C)(C)=O)cc3)c3ccccc23)n1` [Example 15, 1-(3-(tert-Butyl)-1-(4-(dimethylphosphoryl)phenyl)-1H-pyrazol-5-yl)-3-(4-((2-(methyl-(phenyl)amino)pyrimidin-4-yl)oxy)naphthalen-1-yl)urea], for which the IC50 in [3] (setting [12]) was 680 nM; in experiment [3] (TNFα, read-out: IC50 Values for Inhibition of Cytokine Release, PBMCs TNFα) it was 200 nM; in [4], 56 nM; in experiment [9] (setting [14]) it was 398 nM; in experiment [9] (setting [13]), 182 nM; in experiment [5] it was above 1000 nM. Further, the values for the half-maximal inhibitory concentration (IC50) in experiment [6], in experiment [7] and in [8] were above 1000 nM, above 10000 nM and 632 nM, respectively.
Take `COc1cc(Nc2nccc(Oc3ccc(NC(=O)Nc4cc(C(C)C)nn4-c4cccc(CP(C)(C)=O)c4)c4ccccc34)n2)cc(C(=O)NCCN2CCOCC2)c1` [Example 38, 3-((4-((4-(3-(1-(3-((Dimethylphosphoryl)methyl)phenyl)-3-isopropyl-1H-pyrazol-5-yl)-ureido)naphthalen-1-yl)oxy)pyrimidin-2-yl)amino)-5-methoxy-N-(2-morpholinoethyl)-benzamide]: the IC50 in experiment [2] (setting [11]) was 9.2 nM; in [3] (setting [12]), 3.8 nM; in experiment [4] it was 10 nM; in [9] (setting [14]), 2.9 nM; in [9] (setting [13]), 1.6 nM; in experiment [5], 3 nM. The IC50 in experiment [6] was 2 nM; in experiment [7], 1250 nM; in experiment [8], 27 nM.
Take `CC(C)(C)c1cc(NC(=O)Nc2ccc(Oc3ccnc(Nc4cc(OC(F)(F)F)cc(C(=O)NCCN5CCOCC5)c4)n3)c3ccccc23)n(-c2cccc(CP(C)(C)=O)c2)n1` [Example 59, 3-((4-((4-(3-(3-(tert-Butyl)-1-(3-((dimethylphosphoryl)methyl)phenyl)-1H-pyrazol-5-yl)-ureido)naphthalen-1-yl)oxy)pyrimidin-2-yl)amino)-N-(2-morpholinoethyl)-5-(trifluoromethoxy)benzamide]: the IC50 in [2] (setting [10]) was found to be 2.5 nM; in [2] (setting [11]), 75.1 nM; in experiment [3] (setting [12]), 0.8 nM; in experiment [4] it was 81 nM; in experiment [9] (setting [14]), 0.9 nM; in [5] it was 18 nM. Also, the IC50 in [6] was determined as 7 nM; in experiment [7] it was 1240 nM; in experiment [8] it was 1.9 nM.
With `CC(C)(C)c1cc(NC(=O)Nc2ccc(Oc3ccnc(Nc4ccccc4)n3)c3ccccc23)n(-c2cccc(CP(C)(C)=O)c2)n1` [Example 23, 1-(3-(tert-Butyl)-1-(3-((dimethylphosphoryl)methyl)phenyl)-1H-pyrazol-5-yl)-3-(4-((2-(phenylamino)pyrimidin-4-yl)oxy)naphthalen-1-yl)urea], the IC50 in experiment [2] (setting [11]) amounted to 42.7 nM; in [3] (setting [12]) it was 7.5 nM; in experiment [4] it was 265 nM; in [9] (setting [14]), 2.2 nM; in experiment [9] (setting [13]), 1.4 nM; in experiment [5] it was 97 nM. For the same molecule, the IC50 in experiment [6] stood at 40 nM; in experiment [7], 1640 nM; in experiment [8], 13.5 nM.
Take `COCCOCCOCCOc1cc(Nc2nccc(Oc3ccc(NC(=O)Nc4cc(C(C)C)nn4-c4cccc(CP(C)(C)=O)c4)c4ccccc34)n2)cc(OC)c1` [Example 45, 1-(1-(3-((Dimethylphosphoryl)methyl)phenyl)-3-isopropyl-1H-pyrazol-5-yl)-3-(4-((2-((3-methoxy-5-(2-(2-(2-methoxyethoxy)ethoxy)ethoxy)phenyl)amino)pyrimidin-4-yl)oxy)naphthalen-1-yl)urea]: the IC50 worked out at 19.3 nM in experiment [2] (setting [11]); 3.3 nM in experiment [3] (setting [12]); 21 nM in [4]; 3.9 nM in experiment [9] (setting [13]); 1130 nM in experiment [7]; 6.5 nM in [8].
Consider `CC(C)(C)c1cc(NC(=O)Nc2ccc(Oc3ccnc(Nc4ccccc4)c3)c3ccccc23)n(-c2cccc(CP(C)(C)=O)c2)n1` [Example 41, 1-(3-(tert-Butyl)-1-(3-((dimethylphosphoryl)methyl)phenyl)-1H-pyrazol-5-yl)-3-(4-((2-(phenylamino)pyridin-4-yl)oxy)naphthalen-1-yl)urea], for which the IC50 in [2] (setting [11]) came to 56.4 nM; in [3] (setting [12]), 2.8 nM; in experiment [4] it was 357 nM; in [5], 96 nM; in [6], 56 nM; in [7], 4300 nM. The half-inhibitory concentration (IC50) in [8] is 4.7 nM.

As a reminder, the IC50 is the concentration that inhibits the measured activity by half.
